Assay results reported in patent US7763585B2, “Methods for inhibiting tumor cell proliferation” (priority 2003, dated 2010).

Legend:
[1] = tested on: normal NIH3T3 fibroblasts; assay: TUNEL staining for apoptosis, normal fibroblasts; type: cell-based, mouse; settings: 48 h treatment, FIG. 7
Procedure: (§1) FIG. 7 is a photograph showing induction of apoptosis by platinum complexes. Normal NIH3T3 fibroblasts and their v-Src-transformed counterparts were treated with platinum complexes for 48 h and analyzed for evidence of DNA damage using TUNEL staining kit.
(§2) Proliferating cells were counted by phase-contrast microscopy for viable cells (using trypan blue exclusion. TUNEL staining was carried according to supplier's instructions to detect apoptotic cells. Cells (NIH3T3 or NIH3T3/v-Src) were first treated with or without compounds 24-48 h prior to staining.
(§3) Studies have established a critical role for constitutive Stat3 signaling in the survival of transformed and tumor cells (Catlett-Falcone et al., 1999a; Grandis et al., 2000a; Epling-Burnette et al., 2001; Bowman et al., 2000b; Grandis et al., 2000b; Horiguchi et al., 2002). Effects of the subject platinum compounds on viability and survival of malignant cells were evaluated. To determine whether inhibition of persistently-active Stat3 by the subject compounds results in apoptosis, Src-transformed and normal mouse fibroblasts were treated with the subject platinum compounds and subjected to TUNEL staining for evidence of apoptosis.

[2] = tested on: Stat3-dependent luciferase reporter (pLucTKS3); assay: Stat3-dependent firefly luciferase reporter in NIH3T3/v-Src/pLucTKS3; type: cell-based, mouse; settings: NIH3T3/v-Src/pLucTKS3, FIG. 4
Procedure: (§4) FIGS. 4A-B show inhibition of Stat3-mediated gene expression in intact cells by platinum complexes. v-Src-transformed mouse fibroblasts that stably express Stat3-dependent (NIH3T3/v-Src/pLucTKS3) and Stat3-independent (NIH3T3/v-Src/pRLSRE) luciferase reporters were treated with platinum complexes for the indicated times. Cytosolic extracts were then prepared from cells for Stat3-dependent firefly luciferase activity (FIG. 4A) and Stat3-independent renilla luciferase measurements (FIG. 4B). Values are the means and S.D. of five independent assays. […]
(§5) Cytosolic lysates preparation from fibroblasts for luciferase assays or from baculovirus-infected Sf-9 insect cells have been previously described (Turkson et al., 1998; Turkson et al., 2001; Turkson et al., 1999; Zhang et al., 2000). Luciferase assays were performed as outlined in the supplier's (Promega) manual and measured with a luminometer. […]

[3] = tested on: Src-transformed NIH3T3 fibroblasts; assay: TUNEL staining for apoptosis, Src-transformed NIH3T3 fibroblasts; type: cell-based, mouse; settings: 48 h treatment, FIG. 7
Procedure: as §1, §2, §3

[4] = tested on: normal mouse fibroblasts; assay: Cell proliferation ([3H]-thymidine incorporation) of normal mouse fibroblasts; type: cell-based; settings: FIG. 6; reduction in growth rate but not growth inhibitory
Procedure: FIGS. 6A and 6B show the effects of platinum complexes on cell proliferation and viability. […] Values are the mean and S.D. of 3-4 independent determinations.
as §2
The effects of platinum complexes on cell proliferation measured by [^3H]-thymidine incorporation were investigated.

[5] = tested on: Stat3-independent luciferase reporter (pRLSRE); assay: Stat3-independent renilla luciferase reporter in NIH3T3/v-Src/pRLSRE; type: cell-based, mouse; settings: FIG. 4
Procedure: as §4, §5

[NH2][Pt]([NH2])([Cl])([Cl])([Cl])[N+](=O)[O-] [ISS CPA-7]
Apoptosis (TUNEL staining) in normal fibroblasts [1]: marginal degree of apoptosis
Stat3-dependent induction of luciferase reporter [2]: significantly suppress
Apoptosis (TUNEL staining) in Src-transformed NIH3T3 fibroblasts [3]: strong apoptosis
Growth of normal mouse fibroblasts ([3H]-thymidine incorporation) [4]: marginal effect
Induction of Stat3-independent luciferase activity [5]: little or no effect

O=[N+]([O-])[Pt]1([Cl])([Cl])([Cl])[NH]CC[NH]1 [ISS CPA-1]
Apoptosis (TUNEL staining) in normal fibroblasts [1]: marginal degree of apoptosis
Stat3-dependent induction of luciferase reporter [2]: significantly suppress
Apoptosis (TUNEL staining) in Src-transformed NIH3T3 fibroblasts [3]: strong apoptosis
Growth of normal mouse fibroblasts ([3H]-thymidine incorporation) [4]: marginal effect
Induction of Stat3-independent luciferase activity [5]: little or no effect
